Assay results as given in PMC4287973, “Tumor cell-specific inhibition of MYC function using small molecule inhibitors of the HUWE1 ubiquitin ligase” (EMBO Molecular Medicine, 2014).

Legend:
Assay type in all cases: biochemical
[1] = target: T1, HECT-domain of HUWE1 (Homo sapiens, UniProt Q7Z6Z7); assay: HUWE1 auto-ubiquitination assay (DELFIA format); conditions: UBA1, UbcH5b, read-out: IC50 HUWE1 (in vitro auto-ubiquitination)
T1 construct: 30 ng biotinylated His-HUWE1 (C-terminal ∼350 amino acids = HECT-domain); His; biotin (biotinylated)
T1 sequence (Q7Z6Z7 4038-4374 limits assumed): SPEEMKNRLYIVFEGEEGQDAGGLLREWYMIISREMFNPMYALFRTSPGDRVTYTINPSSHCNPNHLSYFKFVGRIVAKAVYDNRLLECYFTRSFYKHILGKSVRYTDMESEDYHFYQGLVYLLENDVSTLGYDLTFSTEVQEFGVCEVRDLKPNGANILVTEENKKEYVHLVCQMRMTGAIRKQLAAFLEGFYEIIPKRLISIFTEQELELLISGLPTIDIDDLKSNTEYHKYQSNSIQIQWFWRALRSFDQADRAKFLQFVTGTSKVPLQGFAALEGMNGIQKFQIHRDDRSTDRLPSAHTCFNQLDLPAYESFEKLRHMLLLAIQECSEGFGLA
Procedure: To identify potential inhibitors of HUWE1, we configured an in vitro assay of HUWE1 activity for high-throughput screening of small molecules, exploiting the fact that the HECT-domain of HUWE1 auto-ubiquitinates (Pandya et al, [2010]). Briefly, the HECT-domain of HUWE1 was biotin-tagged, attached to streptavidin-coated 96-well plates, and incubated with UBA1, UbcH5b, a ubiquitin-conjugating enzyme that supports HUWE1 activity in vitro (Adhikary et al, [2005]), ATP, and MYC-tagged ubiquitin. Auto-ubiquitination was detected using a europium-labeled MYC antibody and appropriate detection reagents (Fig3A). […] After hit confirmation in repeat experiments, we identified inhibitors of UBA1 or UbcH5b by a thioester assay that measures the covalent binding of UbcH5b to ubiquitin in the presence of UBA1: Compounds active in this assay were eliminated. Furthermore, dose responses were determined in both HUWE1 and NEDD4 auto-ubiquitination assays, and compounds inhibiting NEDD4 auto-ubiquitination were eliminated (Fig3B and unpublished observations). […]
A DELFIA format assay was used to measure the covalent association of ubiquitin with HUWE1 (auto-ubiquitination). […] Europium fluorescence was measured with 50 μl DELFIA enhancement solution (Perkin Elmer) in a Wallac Victor fluorescence plate reader (Perkin Elmer).

[2] = target: T2, HECW2 (Homo sapiens, UniProt Q9P2P5); assay: in vitro HECT-domain auto-ubiquitination assay, HECW2
T2 construct: HECT-domains of multiple ligases auto-ubiquitinate in in vitro assays containing both UBA1 and UbcH5b
T2 sequence (Q9P2P5 1237-1572 limits assumed, species assumed): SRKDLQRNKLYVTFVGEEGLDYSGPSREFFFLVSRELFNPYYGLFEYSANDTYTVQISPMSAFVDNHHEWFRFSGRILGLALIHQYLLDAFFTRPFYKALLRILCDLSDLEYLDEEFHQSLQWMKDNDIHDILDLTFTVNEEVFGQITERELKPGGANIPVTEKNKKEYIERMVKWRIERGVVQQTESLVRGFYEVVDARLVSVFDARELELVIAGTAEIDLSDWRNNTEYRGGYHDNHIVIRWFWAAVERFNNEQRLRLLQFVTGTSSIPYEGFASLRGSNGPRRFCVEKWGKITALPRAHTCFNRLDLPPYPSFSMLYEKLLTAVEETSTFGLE

[3] = target: T3, HERC1 (Homo sapiens, UniProt Q15751); assay: in vitro HECT-domain auto-ubiquitination assay, HERC1
T3 construct: HECT-domains of multiple ligases auto-ubiquitinate in in vitro assays containing both UBA1 and UbcH5b
T3 sequence (Q15751 4501-4848 limits assumed): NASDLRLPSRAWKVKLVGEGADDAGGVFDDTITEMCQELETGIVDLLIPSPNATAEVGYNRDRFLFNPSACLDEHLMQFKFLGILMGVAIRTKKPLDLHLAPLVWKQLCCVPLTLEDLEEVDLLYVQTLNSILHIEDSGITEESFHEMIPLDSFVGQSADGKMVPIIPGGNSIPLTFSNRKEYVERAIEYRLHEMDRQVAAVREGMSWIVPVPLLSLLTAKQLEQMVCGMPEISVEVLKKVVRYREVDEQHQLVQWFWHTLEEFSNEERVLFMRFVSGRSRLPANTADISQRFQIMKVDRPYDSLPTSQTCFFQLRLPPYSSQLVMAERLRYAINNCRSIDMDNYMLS

[4] = target: T4, ITCH (Homo sapiens, UniProt Q96J02); assay: in vitro HECT-domain auto-ubiquitination assay, ITCH
T4 construct: HECT-domains of multiple ligases auto-ubiquitinate in in vitro assays containing both UBA1 and UbcH5b
T4 sequence (Q96J02 569-903 limits assumed, species assumed): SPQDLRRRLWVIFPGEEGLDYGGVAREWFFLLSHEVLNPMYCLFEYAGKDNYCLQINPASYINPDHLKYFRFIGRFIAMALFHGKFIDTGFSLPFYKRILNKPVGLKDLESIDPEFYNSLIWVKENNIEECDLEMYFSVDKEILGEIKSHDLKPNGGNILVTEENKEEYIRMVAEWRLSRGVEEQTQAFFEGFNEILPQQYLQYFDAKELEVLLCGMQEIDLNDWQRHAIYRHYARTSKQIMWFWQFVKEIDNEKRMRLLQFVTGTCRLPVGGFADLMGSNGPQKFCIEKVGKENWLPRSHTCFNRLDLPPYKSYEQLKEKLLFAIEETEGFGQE

[5] = target: T5, NEDD4L (Homo sapiens, UniProt Q96PU5); assay: in vitro HECT-domain auto-ubiquitination assay, NEDD4L
T5 construct: HECT-domains of multiple ligases auto-ubiquitinate in in vitro assays containing both UBA1 and UbcH5b
T5 sequence (Q96PU5 640-974 limits assumed): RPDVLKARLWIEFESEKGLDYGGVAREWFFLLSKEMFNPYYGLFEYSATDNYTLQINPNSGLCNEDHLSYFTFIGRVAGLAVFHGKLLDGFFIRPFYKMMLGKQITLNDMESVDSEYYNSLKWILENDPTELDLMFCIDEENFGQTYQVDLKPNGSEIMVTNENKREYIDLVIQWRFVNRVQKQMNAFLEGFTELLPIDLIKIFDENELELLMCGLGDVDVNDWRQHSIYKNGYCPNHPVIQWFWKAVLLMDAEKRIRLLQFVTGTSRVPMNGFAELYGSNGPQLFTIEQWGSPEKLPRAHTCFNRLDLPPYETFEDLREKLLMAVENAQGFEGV

[6] = target: T6, UBE3A (Homo sapiens, UniProt Q05086); assay: in vitro HECT-domain auto-ubiquitination assay, UBE3A
T6 construct: HECT-domains of multiple ligases auto-ubiquitinate in in vitro assays containing both UBA1 and UbcH5b
T6 sequence (Q05086 518-875 limits assumed): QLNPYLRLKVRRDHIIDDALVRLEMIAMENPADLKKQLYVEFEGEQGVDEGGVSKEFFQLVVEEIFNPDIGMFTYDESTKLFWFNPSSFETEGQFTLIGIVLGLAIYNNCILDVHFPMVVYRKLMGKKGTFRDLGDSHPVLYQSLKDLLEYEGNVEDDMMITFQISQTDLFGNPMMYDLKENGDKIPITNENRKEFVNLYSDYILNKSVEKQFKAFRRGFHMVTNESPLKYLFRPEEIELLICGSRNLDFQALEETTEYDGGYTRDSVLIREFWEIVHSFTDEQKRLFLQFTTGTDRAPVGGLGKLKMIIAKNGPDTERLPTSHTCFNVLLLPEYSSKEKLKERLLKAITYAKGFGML

[7] = target: T7, WWP1 (Homo sapiens, UniProt Q9H0M0); assay: in vitro HECT-domain auto-ubiquitination assay, WWP1
T7 construct: HECT-domains of multiple ligases auto-ubiquitinate in in vitro assays containing both UBA1 and UbcH5b
T7 sequence (Q9H0M0 588-922 limits assumed, species assumed): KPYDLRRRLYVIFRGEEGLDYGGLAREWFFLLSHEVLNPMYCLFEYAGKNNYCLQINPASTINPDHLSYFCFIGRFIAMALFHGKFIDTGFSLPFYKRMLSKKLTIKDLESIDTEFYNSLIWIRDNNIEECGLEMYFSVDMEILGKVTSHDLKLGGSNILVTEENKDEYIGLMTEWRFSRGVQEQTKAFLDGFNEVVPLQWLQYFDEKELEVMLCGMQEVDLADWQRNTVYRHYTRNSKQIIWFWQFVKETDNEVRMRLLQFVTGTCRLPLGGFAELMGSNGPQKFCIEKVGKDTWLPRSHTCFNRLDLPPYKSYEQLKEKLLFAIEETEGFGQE

SMILES | IC50 [1] | IC50 [2] | IC50 [3] | IC50 [4] | IC50 [5] | IC50 [6] | IC50 [7]
Cc1c(C(=O)Nc2ccc(CN)cc2)ncnc1N1CCC(C#N)(c2ccccc2)CC1 [BI8622] | 3.1 µM | > 50 µM | > 50 µM | > 50 µM | > 50 µM | > 50 µM | > 50 µM
NCc1cccc(CNc2ncnc3c(N4CCN(Cc5ccccc5)CC4)ncnc23)c1 [BI8626] | 0.9 µM | > 50 µM | > 50 µM | > 50 µM | > 50 µM | > 50 µM | > 50 µM
